Values quoted from earlier work as cited in patent publication US7858334B2, “Degradation of hydrophobic ester pesticides and toxins” (priority 2002, dated 2010).

CC1(C)C(C=C(Cl)Cl)C1C(=O)OCc1cccc(Oc2ccccc2)c1 (racemic) [permethrin, 3-phenoxybenzyl(1RS)-cis, trans-3-(2,2-dichlorovinyl)-2,2-dimethylcyclopropane carboxylate]
published solubility in aqueous solution: 0.5 µM
